According to patent US20250099450A1, “PHARMACEUTICAL COMBINATION FOR TREATING TUMORS AND USE THEREOF” (INXMED (NANJING) CO., LTD, priority 2022, published 2025):

Experiments:
[1] = tested on: endoplasmic reticulum stress-related proteins GRP78 and Phospho-eIF2α (Ser51) in A375 cells; assay: Endoplasmic reticulum stress protein expression in A375 after FAK silencing plus Cobimetinib; type: cell-based; settings: FAK siRNA 50 nM, then Cobimetinib 6 hours
Protocol: A375 cells were transfected with control siRNA or FAK siRNA at a final concentration of 50 nM. After 24 hours of transfection, different concentrations of Cobimetinib were given for 6 hours. The protein expression levels of FAK and endoplasmic reticulum stress-related proteins GRP78 and Phospho-eIF2α (phosphorylated-Phospho-eIF2α) (Ser51) were detected.

[2] = tested on: CT-26 mouse colorectal cancer cell subcutaneous allograft tumor; assay: In vivo antitumor efficacy, CT-26 subcutaneous allograft tumor model (Example 3); design: species or system BALB/c mice; TGI (tumor growth inhibition rate): dose or concentration left out as unconfirmed; settings: for TGI (tumor growth inhibition rate) / Tumor volume on day 15: 15th day after group administration; for TGI (tumor growth inhibition rate): vs control group; for Tumor volume on day 15: Cobimetinib 7.5 mg/kg ip TIW, IN10018 12.5 mg/kg po QD, PDL1 antibody 5 mg/kg ip BIW, mean ± standard error
Description: Mice: Female BALB/c mice aged 6-8 weeks were purchased from Beijing Weitong Lihua Laboratory Animal Co., Ltd. The assay began after the animals arrived and were adapted to the experimental environment. The animals were kept in IVC (independent ventilation system) cages (6 per cage) in an SPF-level animal room. All cages, bedding and drinking water must be sterilized before use. All experimenters should wear protective clothing and latex gloves when operating in the animal room. The animal information cards for each cage should indicate the number of animals in the cage, gender, strain, receipt date, dosing regimen, assay number, group and start date of the assay. Cages, feed and drinking water were changed twice a week. The breeding environment and lighting conditions are as follows:
5% CO2 incubator. Two to three times a week, routine digestion and subculture were performed with trypsin-EDTA. When the cells were in the exponential growth phase and the saturation was 80%-90%, the cells were harvested, counted, and inoculated.
0.1 mL of cell suspension containing 3×10^5 cells was subcutaneously inoculated on the right back of each mouse. When the tumor volume reached ˜58 mm^3 (10 days after cell inoculation), the mice were randomly divided into groups for drug administration according to the tumor volume.
The diameter of tumor was measured with vernier caliper, 3 times a week. The formula for calculating the tumor volume is: V=0.5×a×b^2, where a and b represent the long and short diameters of the tumor respectively.
Animals were considered dead when they died naturally or when the tumor volume was greater than 2500 mm^3. The survival rate and life cycle of the animals after administration were calculated based on this.
Statistical analysis was performed based on tumor volume and tumor weight at the end of the trial using Prism Graphpad software. Comparisons between multiple groups were analyzed using the Two-way ANOVA test, and P<0.05 was considered as having significant differences.
The survival rate of animals was analyzed using the Gehan-Breslow-Wilcoxon test, and P<0.05 was considered as having significant difference.

melanoma cells A375 = assay: Cell killing (CCK8) of Cobimetinib against A375 after FAK silencing; type: cell-based; settings: with FAK silencing (FAK siRNA) vs control siRNA, 72 h
Protocol: In the in vitro assay, different concentrations of Cobimetinib were given under the condition of silencing the FAK gene. In A375 cells, the cell killing curve was obtained and the IC50 value was determined. The cytotoxic effect of Cobimetinib in the control group and the FAK siRNA group was compared to explore the effect of the FAK target on the cytotoxicity of Cobimetinib. The cell killing curve of Cobimetinib at different concentrations in melanoma cells A375 under the condition of FAK gene silencing was detected in the assay and the IC50 value was determined. A 96-well cell plate was seeded with 5000 A375 cells/well, and two groups were transfected with control siRNA or FAK siRNA respectively. Cobimetinib was added 24 hours after the transfection. The highest concentration was 1 μM. A total of 6 concentrations were set for 3-fold gradient dilution. The lowest concentration of Cobimetinib was 4.115 nM. After the drug and cells were incubated for 72 hours, 10 μl CCK8 solution was added to each well and incubated at 37 degrees in a 5% carbon dioxide incubator for 2 hours. A microplate reader with the absorbance wavelength set to 450 nm was used for reading. The values read were compared to the DMSO control group and plotted using Graphpad 8.0.

[3] = tested on: Calreticulin (ICD target) in A375 cells; assay: Calreticulin immunofluorescence in A375 after FAK silencing plus Cobimetinib; type: cell-based; settings: FAK siRNA 50 nM, then 10 nM Cobimetinib 48 hours
Protocol: A375 cells were transfected with control siRNA or FAK siRNA at a final concentration of 50 nM. After 24 hours, A375 cells were treated with 10 nM Cobimetinib for 48 hours and then calreticulin was detected by immunofluorescence.

[4] = tested on: colon cancer CT-26 cell line; assay: In vitro efficacy of IN10018 and HL-085 in CT26 cells (microscopy, flow cytometry); type: cell-based, mouse; settings: 48 hours, IN10018 5 μM, HL-085 1 μM
Protocol: CT26 cells were cultured with RPMI 1640 (Shanghai Yuanpei, Cat No.: L210KJ, Lot No.: F210916)+10% FBS (Gibco, Cat No.: 10099-141c, Lot No.: 2158737cp) and passaged twice. When the cells were in good condition, the culture plates were placed in 24-well plates. After 24 hours of cell spreading, four groups were set up. The first group was the control group, to which culture medium was added, the second group was IN10018 at a concentration of 5 μM, the third group was HL-085 at a concentration of 1 μM, and the fourth group was IN10018 (5 μM) combined with HL-085 (1 μM). The drugs were mixed and cultured at 37° C. in a 5% CO2 incubator for 48 hours.
After 48 hours of drug action, cells were observed under a microscope and photographed to confirm the cell killing effect. Then the cells were collected for flow analysis, and the cells were washed twice with flow buffer (PBS+2% FBS) and 0.5 μl AF647. Anti-calreticulin antibody (abeam) was added to each well and mixed. The mixture was incubated at 4° C. in the dark, flow buffer was added after 20 min of incubation, the annexin staining kit (Beyotime) was used and 195 μl […] was added. After pipetting and mixing with the cells, 5 μl Annexin-V-FITC antibody was added and gently mixed. Finally, 10 μl PI dye was added and mixed. […]

SMILES	endoplasmic reticulum stress of A375 [1]	TGI (tumor growth inhibition rate) [2]	Tumor volume on day 15 [2]	Survival rate on Day 31 ([2]; 31st day after group administration, death = natural death or tumor volume > 2500 mm^3, Cobimetinib 7.5, IN10018 12.5, PDL1 antibody 5 mg/kg)	Median survival time ([2]; up to the 31st day after group administration, Cobimetinib 7.5, IN10018 12.5, PDL1 antibody 5 mg/kg)	cell killing effect of cobimetinib on melanoma cells A375 (melanoma cells A375)	exposure and release of the DAMPs marker calreticulin [3]	cell status / cell killing effect observed under a microscope [4]
O=C(c1ccc(F)c(F)c1Nc1ccc(I)cc1F)N1CC(O)([C@@H]2CCCCN2)C1 [Cobimetinib]	Significantly Up-Regulated	59.2%	1261.3±565.4 mm^3	16.7%	22 days	significantly enhance	significantly enhance	
O=C(NOCCO)c1cc2scnc2c(F)c1Nc1ccc(I)cc1F [HL-085]								poor
COc1cc(C(=O)NC2CCN(C)CC2)c(F)cc1Nc1ncc(C(F)(F)F)c(Oc2cccc3c2C(=O)N(C)C3)n1 [IN10018]		19.9%	2418.8±436.5 mm^3					better
